Reference: patent publication US4105659A, “1,2,3,4,5,6-Hexahydro-2,6-methano-3-benzazocines” (Sterling Drug Inc., priority 1964, dated 1978)
Read-outs that look alike come from different tables or passages of the source.

System: analgesic effect of meperidine hydrochloride
Assay: Antagonism of meperidine analgesia, modified D'Amour-Smith test
Conditions: for ED50: Rattus norvegicus, read-out: dosage of antagonist which reduced the analgesic effect of meperidine by approximately 50 per cent; for dosage of antagonist which reduced the analgesic effect of meperidine by approximately 50 per cent: subcutaneous, rats, lactic acid acid-addition salt, versus 60 mg./kg. meperidine hydrochloride

Compound | dosage of antagonist which reduced the analgesic effect of meperidine by approximately 50 per cent [mg/kg] | further results
CC(C)=CCN1CC[C@@]2(C)c3cc(O)ccc3C[C@@H]1[C@H]2C (relative stereo) [4E (racemic), trans 1,2,3,4,5,6-hexahydro-3-(3-methyl-2-butenyl)-6,11-dimethyl-8-hydroxy-2,6-methano-3-benzazocine] | – | ED50 (sc): 3.3 mg/kg
CC(C)=CCN1CC[C@@]2(C)c3cc(O)ccc3C[C@@H]1[C@@H]2C (relative stereo) [4A (cyclohexylsulfamate), racemic cis 1,2,3,4,5,6-hexahydro-3-(3-methyl-2-butenyl)-6,11-dimethyl-8-hydroxy-2,6-methano-3-benzazocine] | – | ED50 (po): 125 mg/kg
racemic cis 1,2,3,4,5,6-hexahydro-3-(3-methyl-2-butenyl)-6-ethyl-11-methyl-8-cyclopropanecarbonyloxy-2,6-methano-3-benzazocine hydrochloride [Example 7C] | 0.0022 | –
C=CCN1CC[C@@]2(CC)c3cc(OC(C)=O)ccc3C[C@@H]1[C@@H]2C (relative stereo) [Example 1B, racemic cis 1,2,3,4,5,6-hexahydro-3-allyl-6-ethyl-11-methyl-8-acetoxy-2,6-methano-3-benzazocine] | – | ED50 (sc): 0.027 mg/kg
CC(C)=CCN1CC[C@@]2(C)c3cc(O)ccc3C[C@H]1C2C (relative stereo) [4E (levo), trans 1,2,3,4,5,6-hexahydro-3-(3-methyl-2-butenyl)-6,11-dimethyl-8-hydroxy-2,6-methano-3-benzazocine] | 0.55 | –
CCC12CCN(CC=C(C)C)C(Cc3ccc(O)cc31)C2C (stereo not drawn) [7D (levo cis), levo cis 1,2,3,4,5,6-hexahydro-(3-methyl-2-butenyl)-6-ethyl-11-methyl-8-hydroxy-2,6-methano-3-benzazocine] | 3.1 | –
CC(C)=CCN1CC[C@@]2(C)c3cc(O)ccc3C[C@H]1C2C (relative stereo) [4E (dextro), trans 1,2,3,4,5,6-hexahydro-3-(3-methyl-2-butenyl)-6,11-dimethyl-8-hydroxy-2,6-methano-3-benzazocine] | 13.0 | –
CCC12CCN(CC=C(C)C)C(Cc3ccc(O)cc31)C2C (stereo not drawn) [7D (dextro cis), dextro cis 1,2,3,4,5,6-hexahydro-(3-methyl-2-butenyl)-6-ethyl-11-methyl-8-hydroxy-2,6-methano-3-benzazocine] | 19.5 | –
